The text below walks through data of patent US20170121344A1 (Siga Technologies, Inc., priority 2009, published 2017).

One experiment deals with DENV-1. Description: Viral yield assay against DENV-1 in Vero cells. To be noted: Dengue virus. It counts as cell-based. The method, then: (§1) Compounds that were active in the primary screen were tested for activity in viral yield assays. […] Vero cells in 12-well plates were infected with dengue-2 virus at a multiplicity of infection (MOI) of 0.1, treated with compound (or DMSO as a control), incubated at 37° C., harvested 48 hours post infection and titered on Vero cells as described above. The EC50 was calculated through ExcelFit. Activities against other serotypes of dengue virus were determined in a similar way.

For experiment [1], the system named is Dengue-2 (Strain New Guinea C). Description: Viral yield assay against Dengue-2 in Vero cells. It counts as cell-based, Dengue virus. To be noted: Dengue virus, DENV2, Vero cells, read-out: Activity (EC50 in μM) DENV-2. Summed up: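 Yield reduction, Vero; MOI 0.1; compound vs DMSO; 37° C; harvest 48 h p.i.; titer on Vero; EC50 fitted. Other serotypes run the same way.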

The subject of a further experiment is DENV-4. Description: Viral yield assay against DENV-4 in Vero cells. Type of experiment: cell-based. The conditions noted are these: Dengue virus. How it is done: as §1
The next experiment concerns DENV-3. Description: Viral yield assay against DENV-3 in Vero cells. To be noted: Dengue virus. Type of experiment: cell-based. How it is done:
as §1

The mark [2] stands for this setting: viral yield assay, MOI 0.1, 48 hours post infection.

Like-named read-outs stand apart in the source and are kept apart here.

For the compound `O=C(O)CNc1c(C(=O)Nc2cccc(C(F)(F)F)c2)sc2nc(-c3cccs3)ccc12` [Compound 305, 2-[[6-(2-thienyl)-2-[[3-(trifluoromethyl)phenyl]carbamoyl]thieno[2,3-b]pyridin-3-yl]amino]acetic acid], the concentration for a half-maximal effect (EC50) was below 5 µM in the experiment with DENV-1 (DENV1), below 5 µM in experiment [1], below 5 µM in the experiment on DENV-4 (DENV4) and 5 to 25 µM in the experiment with DENV-3 (DENV3).

Regarding `O=C1CCC(=O)N(c2cccc(C(F)(F)F)c2)C(=O)c2sc3nc(-c4cccs4)ccc3c2N1` [Compound 306, 2-(thiophen-2-yl)-10-(3-(trifluoromethyl)phenyl)-7,8-dihydro-5H-pyrido[3′,2′:4,5]thieno[3,2-b][1,5]diazonine-6,9,11(10H)-trione], the EC50 in the experiment with DENV-1 (DENV1, viral yield assay) was below 5 µM; in experiment [1] (setting [2]), below 5 µM; with DENV-4 (DENV4, viral yield assay), below 5 µM; with DENV-3 (DENV3, viral yield assay) it was below 5 µM.

Take `CNCC(=O)Nc1c(C(=O)Nc2cccc(C(F)(F)F)c2)sc2nc(-c3cccs3)ccc12` [Compound 307, 3-[[2-(methylamino)acetyl]amino]-6-(2-thienyl)-N-[3-(trifluoromethyl)phenyl]thieno[2,3-b]pyridine-2-carboxamide]: the half-maximal effective concentration (EC50) (with DENV-1 (DENV1); in experiment [1]; with DENV-4 (DENV4); with DENV-3 (DENV3)) was below 5 µM each time.

On to `C[N+](C)(C)CC(=O)Nc1c(C(=O)Nc2cccc(C(F)(F)F)c2)sc2nc(-c3cccs3)ccc12` [Compound 309, Trimethyl-[2-oxo-2-[[6-(2-thienyl)-2-[[3-(trifluoromethyl)phenyl]carbamoyl]thieno[2,3-b]pyridin-3-yl]amino]ethyl]ammonium], for which the EC50 (in the experiment on DENV-1 (DENV1); in experiment [1]; in the experiment on DENV-4 (DENV4); with DENV-3 (DENV3)) was below 5 µM in each case.

Consider `CCOC(=O)CCC(=O)Nc1c(C(=O)Nc2cccc(C(F)(F)F)c2)sc2nc(-c3cccs3)ccc12` [Compound 310, Ethyl 4-oxo-4-[[6-(2-thienyl)-2-[[3-(trifluoromethyl)phenyl]carbamoyl]thieno[2,3-b]pyridin-3-yl]amino]butanoate], for which the EC50 (in the experiment with DENV-1 (DENV1); in experiment [1]; in the experiment with DENV-4 (DENV4); in the experiment with DENV-3 (DENV3)) was below 5 µM in each case.

On to `O=C(O)CCC(=O)Nc1c(C(=O)Nc2cccc(C(F)(F)F)c2)sc2nc(-c3cccs3)ccc12` [Compound 311, 4-oxo-4-[[6-(2-thienyl)-2-[[3-(trifluoromethyl)phenyl]carbamoyl]thieno[2,3-b]pyridin-3-yl]amino]butanoic acid], for which the EC50 (in the experiment with DENV-1 (DENV1); in experiment [1]; in the experiment with DENV-4 (DENV4); in the experiment on DENV-3 (DENV3)) was below 5 µM in each case.

For the compound `CN(C)CC(=O)Nc1c(C(=O)Nc2ccc(OC(F)(F)F)cc2)sc2nc3c(cc12)CN(C)CC3` [Compound 312, 3-[[2-(dimethylamino)acetyl]amino]-6-methyl-N-[4-(trifluoromethoxy)phenyl]-7,8-dihydro-5H-thieno[2,3-b][1,6]naphthyridine-2-carboxamide], the EC50 (with DENV-1 (DENV1); in experiment [1]; in the experiment on DENV-4 (DENV4); in the experiment on DENV-3 (DENV3)) was below 5 µM each time.

On to `CCNc1c(C(=O)Nc2cccc(C(F)(F)F)c2)sc2nc(-c3cccs3)ccc12` [Compound 321, 3-(ethylamino)-6-(2-thienyl)-N-[3-(trifluoromethyl)phenyl]thieno[2,3-b]pyridine-2-carboxamide], for which the concentration for a half-maximal effect (EC50) (in the experiment with DENV-1 (DENV1); in experiment [1]; in the experiment on DENV-4 (DENV4); in the experiment on DENV-3 (DENV3)) was below 5 µM in each case.

Consider `CN(C(=O)c1sc2nc(-c3cccs3)ccc2c1N)c1cccc(C(F)(F)F)c1` [Compound 322, 3-amino-N-methyl-6-(2-thienyl)-N-[3-(trifluoromethyl)phenyl]thieno[2,3-b]pyridine-2-carboxamide], for which the concentration for a half-maximal effect (EC50) is below 5 µM in the experiment on DENV-1 (DENV1, viral yield assay); below 5 µM in experiment [1] (setting [2]); below 5 µM in the experiment with DENV-4 (DENV4, viral yield assay); below 5 µM in the experiment with DENV-3 (DENV3, viral yield assay).

Turning to `N#Cc1c(O)nc2sc(C(=O)Nc3ccc(Br)cc3)c(N)c2c1-c1ccco1` [Compound 325, 3-amino-N-(4-bromophenyl)-5-cyano-4-(2-furyl)-6-hydroxy-thieno[2,3-b]pyridine-2-carboxamide], the EC50 is below 5 µM in the experiment with DENV-1 (DENV1, viral yield assay); below 5 µM in experiment [1] (setting [2]); below 5 µM in the experiment on DENV-4 (DENV4, viral yield assay); below 5 µM in the experiment on DENV-3 (DENV3, viral yield assay).

For the compound `Nc1c(C(=O)N(CCC(=O)O)c2cccc(C(F)(F)F)c2)sc2nc(-c3cccs3)ccc12` [Compound 327, 3-[N-[3-amino-6-(2-thienyl)thieno[2,3-b]pyridine-2-carbonyl]-3-(trifluoromethyl)-anilino]propanoic acid], the EC50 in the experiment with DENV-1 (DENV1, viral yield assay) was below 5 µM; in experiment [1] (setting [2]), below 5 µM; with DENV-4 (DENV4, viral yield assay) it was below 5 µM; in the experiment with DENV-3 (DENV3, viral yield assay) it was below 5 µM.

Consider `Nc1c(C(=O)Nc2nnc(-c3ccccc3)s2)sc2nc3c(cc12)C(=O)CCCC3` [Compound 328], for which the concentration giving a half-maximal response (EC50) in the experiment with DENV-1 (DENV1, viral yield assay) is below 5 µM; in experiment [1] (setting [2]) it was below 5 µM; in the experiment with DENV-4 (DENV4, viral yield assay), below 5 µM; with DENV-3 (DENV3, viral yield assay) it was 5 to 25 µM.

For the compound `Nc1c(C(=O)Nc2nnc(-c3ccccc3)s2)sc2nc3c(cc12)C(O)CCCC3` (centres unmarked) [Compound 329], the EC50 with DENV-1 (DENV1, viral yield assay) is below 5 µM; in experiment [1] (setting [2]), below 5 µM; with DENV-4 (DENV4, viral yield assay) it was below 5 µM; with DENV-3 (DENV3, viral yield assay) it was 5 to 25 µM.

Take `Nc1c(C(=O)Nc2nnc(-c3ccccc3)s2)sc2nc3c(cc12)C(F)CCCC3` (centres unmarked) [Compound 330]: the concentration giving a half-maximal response (EC50) is 5 to 25 µM in the experiment with DENV-1 (DENV1, viral yield assay); below 5 µM in experiment [1] (setting [2]); 5 to 25 µM with DENV-4 (DENV4, viral yield assay); 5 to 25 µM in the experiment on DENV-3 (DENV3, viral yield assay).

Regarding `Nc1c(C(=O)Nc2ccc(OC(F)(F)F)cc2)sc2nc(-c3ccc(Cl)cc3)ccc12` [Compound 331, 3-amino-6-(4-chlorophenyl)-N-[4-(trifluoromethoxy)phenyl]thieno[2,3-b]pyridine-2-carboxamide], the 50% effective concentration (EC50) with DENV-1 (DENV1, viral yield assay) was below 5 µM; in experiment [1] (setting [2]), below 5 µM; in the experiment on DENV-4 (DENV4, viral yield assay), 5 to 25 µM; in the experiment with DENV-3 (DENV3, viral yield assay) it was below 5 µM.

For the compound `Nc1c(C(=O)Nc2ccc(OC(F)(F)F)cc2)sc2nc(-c3cccc(OC(F)(F)F)c3)ccc12` [Compound 332, 3-amino-6-[3-(trifluoromethoxy)phenyl]-N-[4-(trifluoromethoxy)phenyl]thieno[2,3-b]pyridine-2-carboxamide], the EC50 in the experiment with DENV-1 (DENV1, viral yield assay) is below 5 µM; in experiment [1] (setting [2]), below 5 µM; in the experiment on DENV-4 (DENV4, viral yield assay) it was below 5 µM; in the experiment on DENV-3 (DENV3, viral yield assay), below 5 µM.

As for `Nc1c(C(=O)Nc2ccc(Cl)cc2)sc2nc(-c3ccc(Cl)cc3)ccc12` [Compound 333, 3-amino-N,6-bis(4-chlorophenyl)thieno [2,3-b]pyridine-2-carboxamide], the EC50 in the experiment on DENV-1 (DENV1, viral yield assay) is below 5 µM; in experiment [1] (setting [2]), below 5 µM; in the experiment with DENV-4 (DENV4, viral yield assay) it was below 5 µM; with DENV-3 (DENV3, viral yield assay), below 5 µM.

On to `Nc1c(C(=O)Nc2ccc(Br)cn2)sc2nc(-c3ccc(Cl)cc3)ccc12` [Compound 335, 3-amino-N-(5-bromo-2-pyridyl)-6-(4-chlorophenyl)thieno [2,3-b]pyridine-2-carboxamide], for which the 50% effective concentration (EC50) in the experiment on DENV-1 (DENV1, viral yield assay) was below 5 µM; in experiment [1] (setting [2]), below 5 µM; in the experiment with DENV-4 (DENV4, viral yield assay), below 5 µM; with DENV-3 (DENV3, viral yield assay), below 5 µM.

Regarding `Nc1c(C(=O)Nc2ccc(Br)nc2)sc2nc(-c3ccc(Cl)cc3)ccc12` [Compound 336, 3-amino-N-(6-bromo-3-pyridyl)-6-(4-chlorophenyl)thieno [2,3-b]pyridine-2-carboxamide], the half-maximal effective concentration (EC50) is below 5 µM in the experiment with DENV-1 (DENV1, viral yield assay); below 5 µM in experiment [1] (setting [2]); below 5 µM in the experiment on DENV-4 (DENV4, viral yield assay); below 5 µM in the experiment with DENV-3 (DENV3, viral yield assay).

On to `Nc1c(C(=O)Nc2ccc(C(F)F)cc2)sc2nc(-c3ccc(Cl)cc3)ccc12` [Compound 337, 3-amino-6-(4-chlorophenyl)-N-[4-(difluoromethyl)phenyl]thieno[2,3-b]pyridine-2-carboxamide], for which the EC50 in the experiment on DENV-1 (DENV1, viral yield assay) was below 5 µM; in experiment [1] (setting [2]), below 5 µM; in the experiment on DENV-4 (DENV4, viral yield assay), below 5 µM; in the experiment on DENV-3 (DENV3, viral yield assay), below 5 µM.

`CC(F)(F)c1ccc(NC(=O)c2sc3nc(-c4ccc(Cl)cc4)ccc3c2N)cc1` [Compound 338, 3-amino-6-(4-chlorophenyl)-N-[4-(1,1-difluoro-ethyl)phenyl] thieno[2,3-b] pyridine-2-carboxamide]: the EC50 in the experiment on DENV-1 (DENV1, viral yield assay) is below 5 µM; in experiment [1] (setting [2]), below 5 µM; in the experiment with DENV-4 (DENV4, viral yield assay) it was below 5 µM; in the experiment on DENV-3 (DENV3, viral yield assay), below 5 µM.

Regarding `Nc1c(C(=O)Nc2ccc(OC(F)(F)F)cc2)sc2nc(-c3cccc(OC(F)F)c3)ccc12` [Compound 339, 3-amino-6-[3-(difluoromethoxy)phenyl]-N-[4-(trifluoromethoxy)phenyl]thieno[2,3-b]pyridine-2-carboxamide], the concentration giving a half-maximal response (EC50) is below 5 µM in the experiment with DENV-1 (DENV1, viral yield assay); below 5 µM in experiment [1] (setting [2]); below 5 µM in the experiment on DENV-4 (DENV4, viral yield assay); below 5 µM with DENV-3 (DENV3, viral yield assay).

Take `Nc1c(C(=O)Nc2ccc(OC(F)F)cc2)sc2nc(-c3ccc(Cl)cc3)ccc12` [Compound 340, 3-amino-6-(4-chlorophenyl)-N-[4-(difluoro-methoxy)phe-nyl]thieno[2,3-b]pyridine-2-carboxamide]: the EC50 in the experiment with DENV-1 (DENV1, viral yield assay) was below 5 µM; in experiment [1] (setting [2]), below 5 µM; in the experiment on DENV-4 (DENV4, viral yield assay) it was below 5 µM; with DENV-3 (DENV3, viral yield assay), below 5 µM.
